According to patent publication US20070049564A1 (Wyeth, priority 2005, published 2007):
Converted amounts (≈) assume the structure as drawn.

How the values were obtained:
Assay in all cases: MIC, broth microdilution
[1] = test system: S. pyogenes GC 4563; settings: Streptococcus pyogenes
[2] = test system: E. coli GC 6465; settings: Escherichia coli
[3] = test system: E. coli GC 3226; settings: Escherichia coli
[4] = test system: E. coli GC 2234; settings: Escherichia coli
Procedure: (§1) Antimicrobial susceptibility testing. The in vitro activities of the antibiotics are determined by the broth microdilution method as recommended by the National Committee for Clinical Laboratory Standards (NCCLS) (1). Mueller-Hinton II broth (MHBII)(BBL Cockeysville, Md.) is the medium employed in the testing procedures. Microtiter plates containing serial dilutions of each antimicrobial agent are inoculated with each organism to yield the appropriate density (10^5 CFU/ml) in a 100 μl final volume. The plates are incubated for 18-22 hours at 35° C. in ambient air.
(§2) Representative compounds were first incubated in mouse serum for an hour prior to the in vitro testing against a panel of selected gram-positive and gram-negative bacteria strains. All compounds were also pre-incubated in water for an hour prior to testing as control.

[5] = test system: S. aureus GC 6469; settings: Staphylococcus aureus
[6] = test system: E. coli GC 2235; settings: Escherichia coli
[7] = test system: E. coli GC 1073; settings: Escherichia coli
[8] = test system: E. coli GC 2203; settings: Escherichia coli
[9] = test system: S. typhimurium GC 2172; settings: Salmonella enterica, TYPHIMURIUM
[10] = test system: S. aureus GC 1079; settings: Staphylococcus aureus
[11] = test system: E. coli GC 2270; settings: Escherichia coli
[12] = test system: S. agalactiae GC 4564; settings: Streptococcus agalactiae
[13] = test system: S. aureus GC 6467; settings: Staphylococcus aureus
Procedure: as §1, §2

[14] = test system: S. aureus GC 6466; settings: Staphylococcus aureus
[15] = test system: E. coli GC 2271; settings: Escherichia coli
[16] = test system: E. faecium GC 4556; settings: Enterococcus faecium
[17] = test system: E. coli GC 2233; settings: Escherichia coli
[18] = test system: E. coli GC 4560; settings: Escherichia coli
[19] = test system: E. coli GC 4559; settings: Escherichia coli
[20] = test system: S. aureus GC 6335; settings: Staphylococcus aureus

CCCN(CC(=O)Nc1cc(N(C)C)c2c(c1O)C(=O)C1=C(O)[C@]3(O)C(=O)C(C(N)=O)=C(O)C(N(C)C)C3CC1C2)C(=O)OCc1oc(=O)oc1-c1ccccc1 (stereo in doubt) [Example 110, (2-oxo-5-phenyl-1,3-dioxol-4-yl)methyl 2-{[(7R,10aS)-9-(aminocarbonyl)-4,7-bis(dimethylamino)-1,8,10a,11-tetrahydroxy-10,12-dioxo-5,5a,6,6a,7,10,10a,12-octahydrotetracen-2-yl]amino}-2-oxoethyl(propyl)carbamate]
MIC ([1]; GC4563, pre-incubation in mouse serum): 0.12 µg/mL (≈ 0.152 µM)
MIC ([1]; GC4563, pre-incubation in water): < 0.06 µg/mL
MIC ([2]; GC6465, pre-incubation in mouse serum): 64 µg/mL (≈ 81 µM)
MIC ([2]; GC6465, pre-incubation in water): > 64 µg/mL
MIC ([3]; GC3226, pre-incubation in mouse serum): 2 µg/mL (≈ 2.53 µM)
MIC ([3]; GC3226, pre-incubation in water): 4 µg/mL (≈ 5.06 µM)
MIC ([4]; GC2234, pre-incubation in mouse serum): 1 µg/mL (≈ 1.27 µM)
MIC ([4]; GC2234, pre-incubation in water): 2 µg/mL (≈ 2.53 µM)
MIC ([5]; GC6469, pre-incubation in mouse serum): 32 µg/mL (≈ 40.5 µM)
MIC ([5]; GC6469, pre-incubation in water): 32 µg/mL (≈ 40.5 µM)
MIC ([6]; GC2235, pre-incubation in mouse serum): 0.5 µg/mL (≈ 0.633 µM)
MIC ([6]; GC2235, pre-incubation in water): 1 µg/mL (≈ 1.27 µM)
MIC ([7]; GC1073, pre-incubation in mouse serum): 2 µg/mL (≈ 2.53 µM)
MIC ([7]; GC1073, pre-incubation in water): 8 µg/mL (≈ 10.1 µM)
MIC ([8]; GC2203, pre-incubation in mouse serum): 1 µg/mL (≈ 1.27 µM)
MIC ([8]; GC2203, pre-incubation in water): 4 µg/mL (≈ 5.06 µM)
MIC ([9]; pre-incubation in mouse serum): 64 µg/mL (≈ 81 µM)
MIC ([9]; pre-incubation in water): > 64 µg/mL
MIC ([10]; GC1079, pre-incubation in mouse serum): 16 µg/mL (≈ 20.3 µM)
MIC ([10]; GC1079, pre-incubation in water): 16 µg/mL (≈ 20.3 µM)
MIC ([11]; GC2270, pre-incubation in mouse serum): 1 µg/mL (≈ 1.27 µM)
MIC ([11]; GC2270, pre-incubation in water): 1 µg/mL (≈ 1.27 µM)
MIC ([12]; GC4564, pre-incubation in mouse serum): 0.25 µg/mL (≈ 0.317 µM)
MIC ([12]; GC4564, pre-incubation in water): 0.25 µg/mL (≈ 0.317 µM)
MIC ([13]; GC6467, pre-incubation in mouse serum): 32 µg/mL (≈ 40.5 µM)
MIC ([13]; GC6467, pre-incubation in water): > 64 µg/mL
MIC ([14]; GC6466, pre-incubation in mouse serum): 1 µg/mL (≈ 1.27 µM)
MIC ([14]; GC6466, pre-incubation in water): 2 µg/mL (≈ 2.53 µM)
MIC ([15]; GC2271, pre-incubation in mouse serum): 1 µg/mL (≈ 1.27 µM)
MIC ([15]; GC2271, pre-incubation in water): 2 µg/mL (≈ 2.53 µM)
MIC ([16]; GC4556, pre-incubation in mouse serum): 1 µg/mL (≈ 1.27 µM)
MIC ([16]; GC4556, pre-incubation in water): 2 µg/mL (≈ 2.53 µM)
MIC ([17]; GC2233, pre-incubation in mouse serum): 0.5 µg/mL (≈ 0.633 µM)
MIC ([17]; GC2233, pre-incubation in water): 1 µg/mL (≈ 1.27 µM)
MIC ([18]; GC4560, pre-incubation in mouse serum): 0.25 µg/mL (≈ 0.317 µM)
MIC ([18]; GC4560, pre-incubation in water): 0.5 µg/mL (≈ 0.633 µM)
MIC ([19]; GC4559, pre-incubation in mouse serum): 2 µg/mL (≈ 2.53 µM)
MIC ([19]; GC4559, pre-incubation in water): 2 µg/mL (≈ 2.53 µM)
MIC ([20]; GC6335, pre-incubation in mouse serum): 8 µg/mL (≈ 10.1 µM)
MIC ([20]; GC6335, pre-incubation in water): 8 µg/mL (≈ 10.1 µM)
